The subject of one series is MCF-7 (breast cancer). The series can be described thus: MTT cell viability assay, MCF-7. The series is classed as cell-based, human. The note with it: for IC50: Homo sapiens, MCF7, MTT, 72 h; for Selectivity Index MCF-7/HaCaT: MCF-7 versus HaCaT, from IC50 values. From the text: (§1) The cytotoxic activity of the compounds 8–33 has been evaluated in MTT assays against three human cancer cell lines MCF-7 (breast cancer), HeLa (cervical cancer), and HCT-116 (colon cancer) and it was expressed as IC50 values in μM (Table 1).
(§2) All chemicals, if not stated otherwise, were obtained from Sigma-Aldrich (St. Louis, MO, USA). The MCF-7 cell line was purchased from Cell Lines Services (Eppelheim, Germany), the HeLa and HCT-116 cell lines were obtained from the Department of Microbiology, Tumor and Cell Biology, Karolinska Institute (Stockholm, Sweden). Cells were cultured in Dulbecco’s modified Eagle’s medium (DMEM) supplemented with 10% fetal bovine serum, 2 mM glutamine, 100 units/mL penicillin, and 100 μg/mL streptomycin. Cultures were maintained in a humidified atmosphere with 5% CO2 at 37 °C in an incubator (HeraCell, Heraeus, Langenselbold, Germany).
(§3) Cell viability was determined using the MTT (3-(4,5-dimethylthiazol-2-yl)-2,5-diphenyl-tetrazoliumbromide) assay. Stock solutions of the studied compounds were prepared in 100% DMSO. […] Cells were seeded in 96-well plates at a density of 5 × 10^3 cells/well and treated for 72 h with the examined compounds in the concentration range 1–100 μM (1, 10, 25, 50, and 100 μM). Following treatment, MTT (0.5 mg/mL) was added to the medium and cells were further incubated for 2 h at 37 °C. Cells were lysed with DMSO and the absorbance of the formazan solution was measured at 550 nm with a plate reader (1420 multilabel counter, Victor, Jügesheim, Germany). […] The experiment was performed in triplicate. Values are expressed as the mean ± SD of at least three independent experiments.
In general terms: Tetrazolium dyes change colour on reduction, which living cells bring about.

For another series, the system named is HeLa (cervical cancer). The series can be described thus: MTT cell viability assay, HeLa. In kind it is cell-based, human. The note with it: for Selectivity Index HeLa/HaCaT: HeLa versus HaCaT, from IC50 values; for IC50: Homo sapiens, HeLa, MTT, 72 h. The method, then: as §2, §3
The test system of another series is HCT-116 (colon cancer). The series can be described thus: MTT cell viability assay, HCT-116. In kind it is cell-based, human. The note with it: for Selectivity Index HCT-116/HaCaT: HCT-116 versus HaCaT, from IC50 values; for IC50: Homo sapiens, HCT-116, MTT, 72 h. The method, then:
as §2, §3

The next series relates to HaCaT cells. The series is described as follows: MTT assay with non-cancerous HaCaT cell line. The series is classed as cell-based. The note with it: Homo sapiens, HaCaT, 72 h. The protocol:
The important feature of new cytotoxic agents is their selective activity against cancer cells with a weak impact on the physiology of healthy cells. Determination of the selectivity of compounds 14–19 and 24–29 was done by MTT assay with the non-cancerous HaCaT cell line (Table 2). […] A similar effect was observed also for compound 26. […] Due to the excellent selectivity of compound 30 towards HCT-116 cells and at the same time high cytotoxicity towards this cell line (IC50 = 8 μM); derivative 30 may be a good hit compound for the search for chemotherapeutic agents for the treatment of colon cancer.
as §3

The subject of series [1] is MCF-7, HeLa and HCT-116 cells. The series can be described thus: MTT assay, mean over three tested cancer cell lines. In kind it is cell-based, human. The protocol: as §1
Although the highest activity of the compounds with hydroxyl groups as the R^2 residue was against colon cancer cells, the inhibition of the growth of breast cancer cells was also remarkable.
as §3

Molecules are shown by their SMILES.

These results are taken from publication PMC10002375, “Synthesis of 3-(2-Alkylthio-4-chloro-5-methylbenzenesulfonyl)-2-(1-phenyl-3-arylprop-2-enylideneamino)guanidine Derivatives with Pro-Apoptotic Activity against Cancer Cells” (International Journal of Molecular Sciences, 2023).

For the molecule `Cc1cc(S(=O)(=O)NC(N)=NN=C(C=Cc2ccc(O)cc2)c2ccccc2)c(SCc2ccccc2C)cc1Cl` [Compound 15], the melting point fell in the range of 220 to 225 °C. In the series on MCF-7 (breast cancer), the IC50 worked out at 13 ± 0.4 µM and the “Selectivity Index MCF-7/HaCaT” value was found to be 2.5. Moreover, in the series with HeLa (cervical cancer), the “Selectivity Index HeLa/HaCaT” value was determined as 1.8 and 18 ± 0.5 µM corresponded to half-maximal inhibition (IC50). Besides, in the series on HCT-116 (colon cancer), the “Selectivity Index HCT-116/HaCaT” value stood at 3.3 and the IC50 was determined as 10 ± 0.6 µM. Also, in the series on HaCaT cells, the IC50 worked out at 33 ± 2 µM.
For `Cc1cccc(CSc2cc(Cl)c(C)cc2S(=O)(=O)NC(N)=NN=C(C=Cc2ccc(O)cc2)c2ccccc2)c1` [Compound 17], the IC50 turned out to be 17 ± 1 µM in the series on MCF-7 (breast cancer), 21 ± 1 µM in the series on HeLa (cervical cancer), 12 ± 0.6 µM in the series on HCT-116 (colon cancer) and 35 ± 2 µM in the series on HaCaT cells. Also, the “Selectivity Index MCF-7/HaCaT” value in the series with MCF-7 (breast cancer) is listed as 2.1. Also, the “Selectivity Index HeLa/HaCaT” value in the series on HeLa (cervical cancer) turned out to be 1.7. Besides, the “Selectivity Index HCT-116/HaCaT” value with HCT-116 (colon cancer) amounted to 2.9.
Molecule `Cc1ccc(CSc2cc(Cl)c(C)cc2S(=O)(=O)NC(N)=NN=C(C=Cc2ccccc2O)c2ccccc2)cc1` [Compound 19] showed a melting point of 120 to 125 °C. In the series with MCF-7 (breast cancer), the IC50 was determined as 14 ± 1 µM and the “Selectivity Index MCF-7/HaCaT” value was found to be 1.9. For the same molecule, in the series with HeLa (cervical cancer), the “Selectivity Index HeLa/HaCaT” value is 1.6 and inhibition was half-maximal at 23 ± 1 µM (IC50). Further, in the series on HCT-116 (colon cancer), the “Selectivity Index HCT-116/HaCaT” value came out at 3.3 and the half-maximal inhibitory concentration (IC50) stood at 11 ± 0.2 µM. Further, in the series on HaCaT cells, it took 36 ± 2 µM to reach half-maximal inhibition (IC50).
Take `Cc1ccc(CSc2cc(Cl)c(C)cc2S(=O)(=O)NC(N)=NN=C(C=Cc2ccc(O)cc2)c2ccccc2)cc1` [Compound 20, 3-{4-Chloro-2-[(4-methylphenyl)methylthio]-5-methylbenzenesulfonyl}-2-[3-(4-hydroxyphenyl)-1-phenylprop-2-enylideneamino]guanidine]: the IC50 in the series with MCF-7 (breast cancer) amounted to 15 ± 1 µM; with HeLa (cervical cancer), 15 ± 1 µM; in the series with HCT-116 (colon cancer), 8.5 ± 0.2 µM; with HaCaT cells, 31 ± 1 µM; in series [1] (Homo sapiens, mean of MCF-7, HeLa, HCT-116, MTT, 72 h, read-out: mean IC50 against three tested cell lines) it was 12.8 µM. The “Selectivity Index MCF-7/HaCaT” value in the series on MCF-7 (breast cancer) came to 2.1. Moreover, in the series with HeLa (cervical cancer), the “Selectivity Index HeLa/HaCaT” value is listed as 2.1. Besides, the “Selectivity Index HCT-116/HaCaT” value with HCT-116 (colon cancer) is recorded as 3.6. Also, in series [1] (HaCaT versus mean of three cancer cell lines), the “selectivity ratio, mean IC50 against cancer cells versus IC50 for HaCaT” value is 2.42.
For the molecule `Cc1ccc(CSc2cc(Cl)c(C)cc2S(=O)(=O)NC(N)=NN=C(C=Cc2ccc(Cl)cc2)c2ccccc2)cc1` [Compound 22], the melting point is 172 to 177 °C. Besides, the IC50 with MCF-7 (breast cancer) amounted to 193 ± 10 µM. This molecule yielded an IC50 in the series on HeLa (cervical cancer) of 705 ± 35 µM. Further, in the series with HCT-116 (colon cancer), the IC50 was found to be 183 ± 13 µM.
As for `Cc1cc(S(=O)(=O)NC(N)=NN=C(C=Cc2ccc(O)cc2)c2ccccc2)c(SCc2ccccc2Cl)cc1Cl` [Compound 25], in the series with MCF-7 (breast cancer), half-maximal inhibition (IC50) was put at 19 ± 1 µM and the “Selectivity Index MCF-7/HaCaT” value came to 2.2. In addition, in the series with HeLa (cervical cancer), the “Selectivity Index HeLa/HaCaT” value was 2.3 and it took 18 ± 0.5 µM to reach half-maximal inhibition (IC50). Further, in the series with HCT-116 (colon cancer), the “Selectivity Index HCT-116/HaCaT” value turned out to be 2.7 and the IC50 is 15 ± 0.6 µM. In the series on HaCaT cells, this molecule showed an IC50 of 41 ± 2 µM.
Consider `Cc1cc(S(=O)(=O)NC(N)=NN=C(C=Cc2ccccc2O)c2ccccc2)c(SCc2cccc(Cl)c2)cc1Cl` [Compound 26], for which the IC50 came out at 13 ± 0.6 µM with MCF-7 (breast cancer), 19 ± 0.5 µM in the series with HeLa (cervical cancer), 10 ± 0.4 µM in the series on HCT-116 (colon cancer) and 38 ± 2 µM in the series with HaCaT cells. In addition, the “Selectivity Index MCF-7/HaCaT” value in the series with MCF-7 (breast cancer) is listed as 2.9. Besides, the “Selectivity Index HeLa/HaCaT” value in the series on HeLa (cervical cancer) is given as 2.0. In the series with HCT-116 (colon cancer), the “Selectivity Index HCT-116/HaCaT” value was 3.8.
Consider `Cc1cc(S(=O)(=O)NC(N)=NN=C(C=Cc2ccc(O)cc2)c2ccccc2)c(SCc2cccc(Cl)c2)cc1Cl` [Compound 27], for which, in the series on MCF-7 (breast cancer), it took 16 ± 1 µM to reach half-maximal inhibition (IC50) and the “Selectivity Index MCF-7/HaCaT” value worked out at 2.3. In addition, in the series with HeLa (cervical cancer), the “Selectivity Index HeLa/HaCaT” value is given as 1.8 and inhibition was half-maximal at 20 ± 0.5 µM (IC50). Further, in the series on HCT-116 (colon cancer), the “Selectivity Index HCT-116/HaCaT” value worked out at 3.1 and it took 12 ± 0.1 µM to reach half-maximal inhibition (IC50). Moreover, the IC50 in the series with HaCaT cells is 37 ± 2 µM.
In the case of `Cc1cc(S(=O)(=O)NC(N)=NN=C(C=Cc2ccccc2)c2ccccc2)c(SCc2ccc(Cl)cc2)cc1Cl` [Compound 28], the IC50 was 230 ± 12 µM with MCF-7 (breast cancer), 20 ± 1 µM with HeLa (cervical cancer), 220 ± 11 µM in the series on HCT-116 (colon cancer) and 99 ± 3 µM in the series on HaCaT cells.
Turning to `Cc1cc(S(=O)(=O)NC(N)=NN=C(C=Cc2ccccc2O)c2ccccc2)c(SCc2ccc(Cl)cc2)cc1Cl` [Compound 29], in the series with MCF-7 (breast cancer), half-maximal inhibition (IC50) required 19 ± 1 µM and the “Selectivity Index MCF-7/HaCaT” value worked out at 2.4. Also, in the series on HeLa (cervical cancer), the “Selectivity Index HeLa/HaCaT” value is listed as “ns” and the IC50 came out at 41 ± 2 µM. Besides, in the series with HCT-116 (colon cancer), the “Selectivity Index HCT-116/HaCaT” value worked out at 2.5 and the IC50 came to 18 ± 0.4 µM. Further, in the series with HaCaT cells, half-maximal inhibition (IC50) was put at 45 ± 3 µM.
`Cc1cc(S(=O)(=O)NC(N)=NN=C(C=Cc2ccc(O)cc2)c2ccccc2)c(SCc2ccc(Cl)cc2)cc1Cl` [Compound 30, 3-{4-chloro-2-[(4-chlorophenyl)methylthio]-5-methylbenzenesulfonyl}-2-[3-(4-hydroxyphenyl)-1-phenylprop-2-enylideneamino]guanidine]: the IC50 in the series on MCF-7 (breast cancer) stood at 18 ± 1 µM; with HeLa (cervical cancer) it was 37 ± 1 µM; in the series with HCT-116 (colon cancer) it was 8 ± 0.2 µM; in the series on HaCaT cells, 85 ± 2 µM. Besides, in the series on MCF-7 (breast cancer), the “Selectivity Index MCF-7/HaCaT” value is recorded as 4.7. The “Selectivity Index HeLa/HaCaT” value with HeLa (cervical cancer) was 2.3. The “Selectivity Index HCT-116/HaCaT” value in the series with HCT-116 (colon cancer) was found to be 10.6.

The IC50 is the midpoint of a concentration-inhibition curve. Usually melting point stands for the temperature of the solid-liquid transition.
